Test results published in publication PMC5746060, “General and Modular Strategy for Designing Potent, Selective, and Pharmacologically Compliant Inhibitors of Rhomboid Proteases” (Cell Chemical Biology, 2017).
Starred links: 1 amine or outer side, 2 acyl side, 3 side chain; linkers in the order of their positions; H or OH if unused. Non-standard residues stand in square brackets, D forms with d. Residues, ends and D or L forms follow the SMILES beside them. *: point of attachment. NH(4-phenylbutyl) = c1ccc(CCCCN*)cc1; X1 = C[C@H](N[*:1])C(=O)C(=O)[*:2]; NHPhenethyl = c1ccc(CCN*)cc1

Assays:
[1] = biological target: T1, HiGlpG (Haemophilus influenzae, UniProt P44783); test: activity-based probe competition assay, rhomboid panel; type: biochemical; conditions: 50 μM and 0.5 μM; outcompeted the ABP even at 500 nM
T1 construct: made in house
T1 sequence (P44783 whole entry): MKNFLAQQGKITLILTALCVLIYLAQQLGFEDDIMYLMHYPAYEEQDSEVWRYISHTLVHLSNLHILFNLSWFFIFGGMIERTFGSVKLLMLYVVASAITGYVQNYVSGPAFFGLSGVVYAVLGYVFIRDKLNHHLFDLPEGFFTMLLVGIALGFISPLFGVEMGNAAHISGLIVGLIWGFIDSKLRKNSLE
Source text: (§1) Any enzyme inhibitors to be used as specific tools for cell biology or as starting points for drug development must show sufficient level of selectivity toward their intended target. This is particularly important for compounds that react with the catalytic nucleophile common to many serine hydrolases. […] To map the selectivity of peptidyl ketoamides more objectively and widely, we employed activity-based probe (ABP) competition assays that enable a more general and substrate-independent measurement of inhibitory potency, because they rely solely on the competition between a fluorescently labeled activity-based probe and the tested inhibitor ([Nguyen et al., 2015], [Serim et al., 2012]). The assays we employed used fluorophosphonate ABPs that target the catalytic serine of a wide-range of serine hydrolases ([Bachovchin et al., 2014]), including rhomboids ([Xue et al., 2012]), and are thus very practical general detection reagents even for serine hydrolases for which sensitive substrates might not be available.
(§2) Figure 5 Selectivity of Peptidyl Ketoamides (A) Selectivity of compounds 9, 10, and 11 for nine rhomboid proteases was profiled using activity-based probe competition assay at 50 μM and 0.5 μM concentration. The upper limit of enzyme concentration was 0.4 μM. (B) Selectivity of compounds 9, 10, and 11 against human serine hydrolases was analyzed using EnPlex as described ([Bachovchin et al., 2014]).
(§3) For inhibitor selectivity profiling against rhomboid proteases ([Wolf et al., 2015]), 400 ng of a purified protein preparation of E. coli GlpG was diluted in 30 μL of reaction buffer (20 mM HEPES, pH 7.4, with 0.05% (w/v) DDM). For other rhomboids, amounts were taken that gave similar labeling intensity during profiling. Rhomboids were incubated for 30 min at room temperature with the indicated concentration of compound, 100 μM DCI as positive control, or an equal volume of DMSO as negative control. Next, TAMRA-FP serine hydrolase probe (Thermo Fisher #88318) was added to a final concentration of 1 ìM and incubated for 2 h at 37°C in the dark. The reaction was stopped by addition of 4× Laemmli buffer and the reaction mixture was resolved on 15% SDS-PAGE. Gels were scanned on a Typhoon Trio+ and analyzed using ImageJ. The intensity of each rhomboid protease band calculated by ImageJ was normalized against its corresponding DMSO-treated counterpart (100% activity) to indicate the residual activity left after inhibition. The remaining activity was used to calculate the percentage of inhibition depicted in the heatmap. Selectivity profiles against human serine hydrolases were determined by EnPlex as described previously ([Bachovchin et al., 2014]).

[2] = biological target: T2, AarA (Providencia stuartii, UniProt P46116); test: as above; type: biochemical; conditions: 50 μM and 0.5 μM; outcompeted the ABP even at 500 nM
T2 construct: made in house
T2 sequence (P46116 1-281): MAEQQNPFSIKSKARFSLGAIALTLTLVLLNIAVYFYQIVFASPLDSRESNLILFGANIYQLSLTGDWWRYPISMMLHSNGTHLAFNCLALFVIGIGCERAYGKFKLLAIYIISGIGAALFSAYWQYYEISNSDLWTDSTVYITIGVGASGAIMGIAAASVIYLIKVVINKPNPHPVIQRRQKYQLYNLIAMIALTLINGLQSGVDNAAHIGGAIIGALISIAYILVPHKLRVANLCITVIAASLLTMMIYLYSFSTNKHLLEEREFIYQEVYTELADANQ
Source text: as §1, §2, §3

[3] = biological target: T3, DmRho1 (Drosophila melanogaster, UniProt P20350); test: as above; type: biochemical; conditions: 50 μM and 0.5 μM
T3 construct: made in house
T3 sequence (P20350 1-355): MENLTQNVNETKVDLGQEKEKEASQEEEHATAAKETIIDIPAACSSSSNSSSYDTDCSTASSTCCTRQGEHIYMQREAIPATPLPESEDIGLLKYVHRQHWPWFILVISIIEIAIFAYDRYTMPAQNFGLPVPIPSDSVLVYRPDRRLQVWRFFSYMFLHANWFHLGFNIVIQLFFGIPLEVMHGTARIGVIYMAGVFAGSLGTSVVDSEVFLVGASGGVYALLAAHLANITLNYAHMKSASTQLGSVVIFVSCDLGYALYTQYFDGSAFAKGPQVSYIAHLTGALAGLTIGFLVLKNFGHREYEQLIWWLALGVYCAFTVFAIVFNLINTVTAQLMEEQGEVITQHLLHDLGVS
Source text: as §1, §2, §3

[4] = biological target: T4, MmRHBDL3 (Mus musculus, UniProt P58873); test: as above; type: biochemical; conditions: 50 μM and 0.5 μM
T4 construct: made in house
T4 sequence (P58873 1-404): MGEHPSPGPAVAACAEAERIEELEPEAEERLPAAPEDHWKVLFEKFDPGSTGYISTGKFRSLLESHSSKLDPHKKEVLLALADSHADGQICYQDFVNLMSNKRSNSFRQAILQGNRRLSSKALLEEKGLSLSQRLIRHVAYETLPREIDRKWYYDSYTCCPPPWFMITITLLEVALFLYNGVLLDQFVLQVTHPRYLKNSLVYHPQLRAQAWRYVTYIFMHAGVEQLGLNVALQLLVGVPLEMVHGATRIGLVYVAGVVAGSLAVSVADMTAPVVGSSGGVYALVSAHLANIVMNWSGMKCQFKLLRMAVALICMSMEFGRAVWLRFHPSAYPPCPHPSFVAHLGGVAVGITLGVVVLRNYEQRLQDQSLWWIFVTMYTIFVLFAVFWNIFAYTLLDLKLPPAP
Source text: as §1, §2, §3

[5] = tested on: about 100 human serine hydrolases; test: EnPlex multiplex ABP competition profiling; type: biochemical; conditions: concentration range where the ketoamides inhibit rhomboid proteases
Procedure: as §2
We next examined peptidyl ketoamides for their possible off-target effects on other serine proteases. To get a representative picture of the selectivity of peptidyl ketoamides, we employed a recently developed EnPlex technology, which allows multiplex analysis of ABP competition with about 100 human serine hydrolases, mostly proteases ([Bachovchin et al., 2014]).
as §3

[6] = tested on: TmROM; test: activity-based probe competition assay, rhomboid panel; type: biochemical, Thermotoga maritima; conditions: 50 μM
Source text: Any enzyme inhibitors to be used as specific tools for cell biology or as starting points for drug development must show sufficient level of selectivity toward their intended target. This is particularly important for compounds that react with the catalytic nucleophile common to many serine hydrolases. Only limited tests of selectivity have been conducted for the currently used rhomboid inhibitors isocoumarins, β-lactams and β-lactones, at best interrogating them against trypsin or chymotrypsin ([Pierrat et al., 2011], [Vosyka et al., 2013]). […]
Figure 5 Selectivity of Peptidyl Ketoamides (A) Selectivity of compounds 9, 10, and 11 for nine rhomboid proteases was profiled using activity-based probe competition assay at 50 μM and 0.5 μM concentration. […] (B) Selectivity of compounds 9, 10, and 11 against human serine hydrolases was analyzed using EnPlex as described ([Bachovchin et al., 2014]).
For inhibitor selectivity profiling against rhomboid proteases ([Wolf et al., 2015]), 400 ng of a purified protein preparation of E. coli GlpG was diluted in 30 μL of reaction buffer (20 mM HEPES, pH 7.4, with 0.05% (w/v) DDM). […] Gels were scanned on a Typhoon Trio+ and analyzed using ImageJ. The intensity of each rhomboid protease band calculated by ImageJ was normalized against its corresponding DMSO-treated counterpart (100% activity) to indicate the residual activity left after inhibition. […]

**Q.** With `CC(=O)N[C@@H](CCCNC(=N)N)C(=O)N[C@H](C(=O)N[C@@H](CCCNC(=N)N)C(=O)N[C@@H](Cc1c[nH]cn1)C(=O)N[C@@H](C)C(=O)C(=O)NCCc1ccccc1)C(C)C` [compound 9, Ac-RVRHA-CONH-phenylethyl] (Ac-RVRH[X1]-NHPhenethyl) as the molecule, how does the “competition with ABP labeling of HiGlpG” value [1] read?
**A.** potently competed

**Q.** What about the “competition with ABP labeling of AarA” value [2] of the same molecule?
**A.** potently competed

**Q.** What about the “competition with ABP labeling of DmRho1” value [3] of the same molecule?
**A.** none of these compounds were able to compete

**Q.** And the “competition with ABP labeling of MmRHBDL3” value [4]?
**A.** none of these compounds were able to compete

**Q.** And the “inhibition of human serine hydrolases (EnPlex selectivity profile)” value [5]?
**A.** fail to inhibit most of the tested human serine hydrolases

**Q.** And the “inhibition of ABP labeling of TmROM” value [6]?
**A.** only partially inhibited

**Q.** `CC(=O)N[C@@H](CCCNC(=N)N)C(=O)N[C@H](C(=O)N[C@@H](CCCNC(=N)N)C(=O)N[C@@H](Cc1c[nH]cn1)C(=O)N[C@@H](C)C(=O)C(=O)NCCCCc1ccccc1)C(C)C` [compound 11, Ac-RVRHA-CONH-phenylbutyl] (Ac-RVRH[X1]-{NH(4-phenylbutyl)}) was tested. Which “competition with ABP labeling of HiGlpG” value [1] did it give?
**A.** potently competed

**Q.** And the “competition with ABP labeling of AarA” value [2]?
**A.** potently competed

**Q.** And the “competition with ABP labeling of DmRho1” value [3]?
**A.** none of these compounds were able to compete

**Q.** What about the “competition with ABP labeling of MmRHBDL3” value [4] of the same molecule?
**A.** none of these compounds were able to compete

**Q.** What about the “inhibition of human serine hydrolases (EnPlex selectivity profile)” value [5] of the same molecule?
**A.** fail to inhibit most of the tested human serine hydrolases

**Q.** What about the “inhibition of ABP labeling of TmROM” value [6] of the same molecule?
**A.** only partially inhibited
